# Experimental data from PubChem BioAssay AID1963845 (Molecular Pharmacology Branch, DTP, NCI, 2024).
# Tested on: 429239-143-T-J1-PDC complex spheroid viability
# Assay: Anticancer human tumor 429239-143-T-J1-PDC patient-derived small cell lung carcinoma cell line growth inhibition [POLQ]
# Conditions: for IC50: curve of first compound; for viability, T/C: stronger effect = lower value
# In short: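 Complex spheroid viability model combining PDC tumour cells with endothelial (HUVEC) and MSC stromal cells. Novobiocin, ART-558 or RP6685 were tested singly and in combination with standard and investigational anticancer drugs. Each was titrated in half-log steps from near clinical Cmax, or from 10 microM where Cmax was unknown.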
# [1] = second compound 0.0316 µM, first compound 0.0316 µM
# [2] = second compound 0.0316 µM, first compound 0.1 µM
# [3] = second compound 0.0316 µM, first compound 0.316 µM
# [4] = second compound 0.0316 µM, first compound 1 µM
# [5] = second compound 0.0316 µM, first compound 3.16 µM
# [6] = second compound 0.0316 µM, first compound 10 µM
# [7] = second compound 0.1 µM, first compound 0.0316 µM
# [8] = second compound 0.1 µM, first compound 0.1 µM
# [9] = second compound 0.1 µM, first compound 0.316 µM
# [10] = second compound 0.1 µM, first compound 1 µM
# [11] = second compound 0.1 µM, first compound 3.16 µM
# [12] = second compound 0.1 µM, first compound 10 µM
# [13] = second compound 0.316 µM, first compound 0.0316 µM
# [14] = second compound 0.316 µM, first compound 0.1 µM
# [15] = second compound 0.316 µM, first compound 0.316 µM
# [16] = second compound 0.316 µM, first compound 1 µM
# [17] = second compound 0.316 µM, first compound 3.16 µM
# [18] = second compound 0.316 µM, first compound 10 µM
# [19] = second compound 1 µM, first compound 0.0316 µM
# [20] = second compound 1 µM, first compound 0.1 µM
# [21] = second compound 1 µM, first compound 0.316 µM
# [22] = second compound 1 µM, first compound 1 µM
# [23] = second compound 1 µM, first compound 3.16 µM
# [24] = second compound 1 µM, first compound 10 µM
# [25] = second compound 3.16 µM, first compound 0.0316 µM
# [26] = second compound 3.16 µM, first compound 0.1 µM
# [27] = second compound 3.16 µM, first compound 0.316 µM
# [28] = second compound 3.16 µM, first compound 1 µM
# [29] = second compound 3.16 µM, first compound 3.16 µM
# [30] = second compound 3.16 µM, first compound 10 µM
# [31] = second compound 10 µM, first compound 0.0316 µM
# [32] = second compound 10 µM, first compound 0.1 µM
# [33] = second compound 10 µM, first compound 0.316 µM
# [34] = second compound 10 µM, first compound 1 µM
# [35] = second compound 10 µM, first compound 3.16 µM
# [36] = second compound 10 µM, first compound 10 µM
# 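Note: luminescence signal used as surrogate measure of viable cells; spheroids exposed to compounds for seven days before readout.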
# 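Throughout, for viability, T/C: 100% = DMSO vehicle control viability as luminescence relative to vehicle.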
smiles,measurement,setting,value
COc1ccc([C@@H](O)c2cc(-c3ncnc4cc(N5CCOCC5)ccc34)c(F)cc2Cl)nn1 + Nc1ccc(C#CCN(C(=O)Cc2ncc(C(F)(F)F)cc2C(F)(F)F)c2ccc(F)cc2)nn1,IC50,second compound 0.0316 µM,9.31 µM
same,IC50,second compound 0.1 µM,9.66 µM
same,IC50,second compound 0.316 µM,8.87 µM
same,IC50,second compound 1 µM,> 10 µM
same,IC50,second compound 3.16 µM,8.13 µM
same,IC50,second compound 10 µM,7.29 µM
same,"viability, T/C",[1],92%
same,"viability, T/C",[2],103%
same,"viability, T/C",[3],102%
same,"viability, T/C",[4],98.8%
same,"viability, T/C",[5],90.1%
same,"viability, T/C",[6],47.2%
same,"viability, T/C",[7],97.8%
same,"viability, T/C",[8],105%
same,"viability, T/C",[9],101%
same,"viability, T/C",[10],94.3%
same,"viability, T/C",[11],86.1%
same,"viability, T/C",[12],48.4%
same,"viability, T/C",[13],107%
same,"viability, T/C",[14],101%
same,"viability, T/C",[15],102%
same,"viability, T/C",[16],112%
same,"viability, T/C",[17],88.8%
same,"viability, T/C",[18],45.5%
same,"viability, T/C",[19],97.8%
same,"viability, T/C",[20],86.6%
same,"viability, T/C",[21],97%
same,"viability, T/C",[22],100%
same,"viability, T/C",[23],84%
same,"viability, T/C",[24],55.8%
same,"viability, T/C",[25],106%
same,"viability, T/C",[26],102%
same,"viability, T/C",[27],96.8%
same,"viability, T/C",[28],96.6%
same,"viability, T/C",[29],78.7%
same,"viability, T/C",[30],43.5%
same,"viability, T/C",[31],95.2%
same,"viability, T/C",[32],94.4%
same,"viability, T/C",[33],108%
same,"viability, T/C",[34],97%
same,"viability, T/C",[35],72.1%
same,"viability, T/C",[36],41.6%
O=C(c1cc(Cc2n[nH]c(=O)c3ccccc23)ccc1F)N1CCN(C(=O)C2CC2)CC1 + COC1C(OC(N)=O)C(O)C(Oc2ccc3c(O)c(NC(=O)c4ccc(O)c(CC=C(C)C)c4)c(=O)oc3c2C)OC1(C)C,IC50,second compound 0.0316 µM,1.94 µM
same,IC50,second compound 0.1 µM,1.96 µM
same,IC50,second compound 0.316 µM,1.7 µM
same,IC50,second compound 1 µM,1.97 µM
same,IC50,second compound 3.16 µM,1.7 µM
same,IC50,second compound 10 µM,1.36 µM
same,"viability, T/C",[1],97.2%
same,"viability, T/C",[2],80.8%
same,"viability, T/C",[3],79.1%
same,"viability, T/C",[4],82.3%
same,"viability, T/C",[5],26.2%
same,"viability, T/C",[6],16.1%
same,"viability, T/C",[7],82.7%
same,"viability, T/C",[8],88.6%
same,"viability, T/C",[9],77.8%
same,"viability, T/C",[10],74.3%
same,"viability, T/C",[11],32.9%
same,"viability, T/C",[12],18.2%
same,"viability, T/C",[13],103%
same,"viability, T/C",[14],97.2%
same,"viability, T/C",[15],86.8%
same,"viability, T/C",[16],68.9%
same,"viability, T/C",[17],28.9%
same,"viability, T/C",[18],18.2%
same,"viability, T/C",[19],104%
same,"viability, T/C",[20],87.5%
same,"viability, T/C",[21],81.2%
same,"viability, T/C",[22],78.5%
same,"viability, T/C",[23],30.4%
same,"viability, T/C",[24],17.6%
same,"viability, T/C",[25],97.3%
same,"viability, T/C",[26],86.5%
same,"viability, T/C",[27],73.8%
same,"viability, T/C",[28],71.6%
same,"viability, T/C",[29],29.2%
same,"viability, T/C",[30],19%
same,"viability, T/C",[31],106%
same,"viability, T/C",[32],99.6%
same,"viability, T/C",[33],86.9%
same,"viability, T/C",[34],60.7%
same,"viability, T/C",[35],24.8%
same,"viability, T/C",[36],16.4%
COc1cccc2c1C(=O)c1c(O)c3c(c(O)c1C2=O)CC(O)(C(=O)CO)CC3OC1CC(N)C(O)C(C)O1 (stereo unspecified) + Cc1cccc(N(C)C(=O)C2C(O)CCN2c2nc(C)cc(C(F)(F)F)c2C#N)c1,IC50,second compound 0.0316 µM,0.0565 µM
same,IC50,second compound 0.1 µM,0.0579 µM
same,IC50,second compound 0.316 µM,0.0478 µM
same,IC50,second compound 1 µM,0.0438 µM
same,IC50,second compound 3.16 µM,0.0469 µM
same,IC50,second compound 10 µM,0.0452 µM
same,"viability, T/C",[1],83.3%
same,"viability, T/C",[2],15.2%
same,"viability, T/C",[3],12.4%
same,"viability, T/C",[4],0.22%
same,"viability, T/C",[5],0.12%
same,"viability, T/C",[6],0.13%
same,"viability, T/C",[7],84.9%
same,"viability, T/C",[8],15.6%
same,"viability, T/C",[9],14.7%
same,"viability, T/C",[10],0.15%
same,"viability, T/C",[11],0.11%
same,"viability, T/C",[12],0.09%
same,"viability, T/C",[13],69.1%
same,"viability, T/C",[14],14.3%
same,"viability, T/C",[15],11.2%
same,"viability, T/C",[16],0.17%
same,"viability, T/C",[17],0.16%
same,"viability, T/C",[18],0.11%
same,"viability, T/C",[19],62.7%
same,"viability, T/C",[20],16%
same,"viability, T/C",[21],14.7%
same,"viability, T/C",[22],0.15%
same,"viability, T/C",[23],0.13%
same,"viability, T/C",[24],0.09%
same,"viability, T/C",[25],68.1%
same,"viability, T/C",[26],13.6%
same,"viability, T/C",[27],12.1%
same,"viability, T/C",[28],0.14%
same,"viability, T/C",[29],0.25%
same,"viability, T/C",[30],0.15%
same,"viability, T/C",[31],63.8%
same,"viability, T/C",[32],17.8%
same,"viability, T/C",[33],14.5%
same,"viability, T/C",[34],0.17%
same,"viability, T/C",[35],0.25%
same,"viability, T/C",[36],0.2%
